Test results from PMC4447534 (ChemMedChem, 2015).
Where “and” joins values, the source holds several entries; their conditions need not be identical. Equal entries are not always repeated. Where two headings read alike, the source gives them in different places.

Key:
Vero cells = experiment: Cytotoxicity for Vero cells; assay type: cell-based; settings: one experiment in triplicate, means ± S.D.
T. cruzi (amastigotes) [1] = settings: for T. cruzi ED50: intracellular amastigotes, one experiment in triplicate, means ± S.D.; for SI (T. cruzi): selectivity index, Vero cells versus T. cruzi
T. cruzi (amastigotes) [2] = experiment: microbe, parasite or virus in culture; settings: Trypanosoma cruzi, read-out: T. cruzi ED50
[3] = test system: murine models of Chagas disease; settings: ketoconazole as positive control; cited from earlier work
[4] = test system: amastigotes of Trypanosoma cruzi; settings: cited from earlier work
[5] = selectivity index, Vero cells versus T. gondii

Molecule	Cytotoxicity ED50 (Vero cells)	T. cruzi ED50 (T. cruzi (amastigotes) [1])	IC50 (T. cruzi (amastigotes) [2])	also measured
N#CSCCOc1ccc(Oc2ccc3ccccc3c2)cc1 [Compound 20, β-Naphtyloxyphenoxyethyl Thiocyanate]	104.7 ± 7.8 µM	–	–	T. gondii ED50 (T. gondii (tachyzoites)): 2.3 µM and 2.25 ± 0.84 µM; SI (T. gondii) (T. gondii (tachyzoites); [5]): 46.5
N#CSCCOc1cccnc1 [Compound 72, 3-Pyridyloxyethyl Thiocyanate]	–	devoid of antiparasitic activity	–	T. gondii ED50 (T. gondii (tachyzoites); tachyzoites, one experiment in triplicate, means ± S.D.): devoid of antiparasitic activity
N#CSCCOc1cccc(Oc2ccccn2)c1 [Compound 60, 3-(2-Pyridyloxy)phenoxyethyl Thiocyanate]	> 200.0 µM	free of antiparasitic activity	> 10 µM	–
N#CSCCOc1cccc(Oc2ccc(Cl)cc2)c1 [Compound 48, 3-(4-Chlorophenoxy)phenoxyethyl Thiocyanate]	98.4 ± 5.8 µM	very low micromolar range	6.27 ± 0.75 µM	SI (T. cruzi) (T. cruzi (amastigotes) [1]): 15.7
N#CSCCOc1cccc(Oc2ccncc2)c1 [Compound 62, 3-(4-Pyridyloxy)phenoxyethyl Thiocyanate]	> 200.0 µM	free of antiparasitic activity	> 10 µM	–
α-Naphtyloxyphenylethyl Thiocyanate [Compound 24]	–	–	–	T. gondii ED50 (T. gondii (tachyzoites)): 2.9 µM and 2.87 ± 0.19 µM; SI (T. gondii) (T. gondii (tachyzoites); [5]): 24.4; SI (T. cruzi) (T. cruzi (amastigotes) [1]): > 7
COc1ccccc1Oc1cccc(OCCSC#N)c1 [Compound 49, 3-(2-Methoxyphenoxy)phenoxyethyl Thiocyanate]	115.7 ± 39.8 µM	–	11.7 ± 2.52 µM	SI (T. gondii) (T. gondii (tachyzoites); [5]): 41.5
N#CSCCOc1ccc(Br)cc1Br [Compound 68, 2,4-Dibromophenoxyethyl Thiocyanate]	> 50.0 µM	inactive	> 20 µM	–
[N-]=[N+]=NCCOc1ccc(Oc2ccccc2)cc1 [Compound 64, 4-Phenoxyphenoxyethyl Azide]	> 200.0 µM	–	> 10 µM	–
COc1cccc(Oc2cccc(OCCSC#N)c2)c1 [Compound 50, 3-(3-Methoxyphenoxy)-phenoxyethyl Thiocyanate]	96.2 ± 37.5 µM	–	8.75 ± 0.33 µM	SI (T. gondii) (T. gondii (tachyzoites); [5]): 23.9; SI (T. cruzi) (T. cruzi (amastigotes) [1]): 11.0
N#CSCCOc1ccc(Oc2ccc(C(F)(F)F)cc2)cc1 [Compound 16, 4-[(4-Trifluoro)phenoxy]phenoxyethyl Thiocyanate]	> 50.0 µM	9.2 µM and 9.2 ± 1.8 µM	–	SI (T. gondii) (T. gondii (tachyzoites)): > 26.7; T. gondii ED50 (T. gondii (tachyzoites)): 1.9 µM and 1.86 ± 0.38 µM
N#CSCCOc1ccc(Oc2ccccc2)cc1 [WC-9, 4-phenoxyphenoxyethyl thiocyanate, reference compound]	82.6 ± 7.3 µM	–	5 ± 1.1 µM	effect on parasitemia [3]: able to impair parasitemia; ED50 against amastigotes of Trypanosoma cruzi [4]: low nanomolar range
N#CSCCOc1ccc(Oc2cccc(C(F)(F)F)c2)cc1 [Compound 15, 4-[(3-Trifluoro)phenoxy]phenoxyethyl Thiocyanate]	> 50.0 µM	10.0 µM and 10.0 ± 2.5 µM	–	SI (T. gondii) (T. gondii (tachyzoites)): > 31.1; T. gondii ED50 (T. gondii (tachyzoites)): 1.6 µM and 1.66 ± 0.35 µM; SI (T. cruzi) (T. cruzi (amastigotes) [1]): > 5.0
N#CSCCOc1cccc(Oc2cccc(Cl)c2)c1 [Compound 47, 3-(3-Chlorophenoxy)phenoxyethyl Thiocyanate]	> 200.0 µM	vanishing biological activity	> 20 µM	–
O=C(Cn1ccnc1[N+](=O)[O-])NCc1ccccc1 [Benznidazole, reference compound]	–	–	1.92 ± 0.55 µM	–
Cc1ccc(S(=O)(=O)OCCOc2cccnc2)cc1 [Compound 71, 3-Pyridyloxyethyl 4-Toluenesulfonate]	> 200 µM	–	> 10 µM	–
N#CSCCOc1cccc(Oc2ccccc2Cl)c1 [Compound 46, 3-(2-Chlorophenoxy)phenoxyethyl Thiocyanate]	> 50.0 µM	–	11.9 ± 0.38 µM	SI (T. gondii) (T. gondii (tachyzoites); [5]): 23.4
N#CSCCOc1ccc(Oc2ccccn2)cc1 [Compound 29, 4-(Pyridin-2-yloxy)phenoxyethyl Thiocyante]	> 200.0 µM	–	–	–
N#CSCCOc1cccc(Oc2cccnc2)c1 [Compound 61, 3-(3-Pyridyn-3-yloxy)phenoxyethyl Thiocyanate]	124.0 ± 12.0 µM	–	–	SI (T. gondii) (T. gondii (tachyzoites)): 33.5; SI (T. cruzi) (T. cruzi (amastigotes) [1]): 16.6
